The first test concerns GST-Braf kinase domain and biotinylated E3 substrate adapter (VHL/EloB/EloC complex or CRBN318-425). The test can be described thus: Dimerization assay (AlphaScreen/AlphaLisa), RAF/E3 dimerization. The format is binding. Particulars: Table 15; relative value; compounds 4 fold serial dilutions from 20 μM. For orientation: In Alpha technology, singlet oxygen from a donor bead excites a nearby acceptor bead.
In the case of `Cc1ncc(NC(=O)c2cccc(C(F)(F)F)c2)cc1-c1cnc(OCCCCCc2cn(CCCCCC(=O)Nc3cccc4c3C(=O)N(C3CCC(=O)NC3=O)C4=O)nn2)c(N2CCOCC2)c1` (centres unmarked) [Compound 1.005, N-(6′-((5-(1-(6-((2-(2,6-dioxopiperidin-3-yl)-1,3-dioxoisoindolin-4-yl)amino)-6-oxohexyl)-1H-1,2,3-triazol-4-yl)pentyl)oxy)-2-methyl-5′-morpholino-[3,3′-bipyridin]-5-yl)-3-(trifluoromethyl)benzamide], the RAF/E3 Dimerization result is on record as “+ (5% > RAF/E3 Dimerization)”.
Same read-out and setting: to `Cc1ncc(NC(=O)c2cccc(C(F)(F)F)c2)cc1-c1cnc(OCCOCCOCCOCc2cn(CCCCCC(=O)Nc3cccc4c3C(=O)N(C3CCC(=O)NC3=O)C4=O)nn2)c(N2CCOCC2)c1` (centres unmarked) [Compound 1.007, N-(6′-(2-(2-(2-((1-(6-((2-(2,6-dioxopiperidin-3-yl)-1,3-dioxoisoindolin-4-yl)amino)-6-oxohexyl)-1H-1,2,3-triazol-4-yl)methoxy)ethoxy)ethoxy)ethoxy)-2-methyl-5′-morpholino-[3,3′-bipyridin]-5-yl)-3-(trifluoromethyl)benzamide] belongs “+ + +”.

The same test, now with this note: Table 16; relative value; compounds 4 fold serial dilutions from 20 μM.
`Cc1ncc(NC(=O)c2cccc(C(F)(F)F)c2)cc1-c1cnc(OCCOCCOCCOCC(=O)N[C@@H](C(=O)N2C[C@H](O)C[C@H]2C(=O)N[C@@H](C)c2ccc(-c3scnc3C)cc2)C(C)(C)C)c(N2CCOCC2)c1` [Compound 1.013, (2S,4R)-1-((R)-2-(tert-butyl)-14-((2′-methyl-5-morpholino-5′-(3-(trifluoromethyl)benza-mido)-[3,3′-bipyridin]-6-yl)oxy)-4-oxo-6,9,12-trioxa-3-azatetradecan-1-oyl)-4-hydroxy-N—((S)-1-(4-(4-methylthiazol-5-yl)phenyl)ethyl)pyrrolidine-2-carboxamide]: the RAF/E3 Dimerization result is recorded as “+ + +”.

The same test, now with this note: Table 17; relative value; compounds 4 fold serial dilutions from 20 μM.
In the case of `Cc1ncc(NC(=O)c2cccc(C(F)(F)F)c2)cc1-c1cnc(OCCOCc2cn(CCCCCC(=O)Nc3cccc4c3C(=O)N(C3CCC(=O)NC3=O)C4=O)nn2)c(N2CCOCC2)c1` (centres unmarked) [Compound 2.022, N-(6′-(2-((1-(6-((2-(2,6-dioxopiperidin-3-yl)-1,3-dioxoisoindolin-4-yl)amino)-6-oxohexyl)-1H-1,2,3-triazol-4-yl)methoxy)ethoxy)-2-methyl-5′-morpholino-[3,3′-bipyridin]-5-yl)-3-(trifluoromethyl)benzamide], the “RAF/E3 Dimerization” value was “++ (25% > RAF/E3 Dimerization ≥ 5%)”.
Same read-out and setting: to `Cc1ncc(NC(=O)c2cccc(C(F)(F)F)c2)cc1-c1cnc(OCCOCCOCC(=O)NCCCCCc2cccc3c2CN(C2CCC(=O)NC2=O)C3=O)c(N2CCOCC2)c1` (centres unmarked) [Compound 2.017, N-(6′-(2-(2-(2-((5-(2-(2,6-dioxopiperidin-3-yl)-1-oxoisoindolin-4-yl)pentyl)amino)-2-oxoethoxy)ethoxy)ethoxy)-2-methyl-5′-morpholino-[3,3′-bipyridin]-5-yl)-3-(trifluoromethyl)benzamide] belongs “++++ (75% > RAF/E3 Dimerization ≥ 50%)”.
Turning to `O=C1CCC(N2Cc3c(CCCCCCNC(=O)c4cc(Oc5ccc(NC(=O)Nc6ccc(Cl)c(C(F)(F)F)c6)cc5)ccn4)cccc3C2=O)C(=O)N1` (centres unmarked) [Compound 2.031, 4-(4-(3-(4-chloro-3-(trifluoromethyl)phenyl)ureido)phenoxy)-N-(6-(2-(2,6-dioxopiperidin-3-yl)-1-oxoisoindolin-4-yl)hexyl)picolinamide], the “RAF/E3 Dimerization” value is reported as “+ (5% > RAF/E3 Dimerization)”.
Same read-out and setting: in the case of `CNc1ncc2cc(-c3cc(NC(=O)NCCOCCOCCOCC(=O)N[C@@H](C(=O)N4C[C@H](O)C[C@H]4C(=O)N[C@@H](C)c4ccc(-c5scnc5C)cc4)C(C)(C)C)c(F)cc3C)c(C)nc2n1` [Compound 2.041, (2S,4R)-1-((R)-15-(tert-butyl)-1-((2-fluoro-4-methyl-5-(7-methyl-2-(methylamino)pyrido[2,3-d]pyrimidin-6-yl)phenyl)amino)-1,13-dioxo-5,8,11-trioxa-2,14-diazahexadecan-16-oyl)-4-hydroxy-N—((S)-1-(4-(4-methylthiazol-5-yl)phenyl)ethyl)pyrrolidine-2-carboxamide] it was “+ (5% > RAF/E3 Dimerization)”; in that of `O=C1CCC(N2C(=O)c3cccc(NC(=O)CCCCCn4cc(CCNC(=O)c5cc(Oc6ccc(NC(=O)Nc7ccc(Cl)c(C(F)(F)F)c7)cc6)ccn5)nn4)c3C2=O)C(=O)N1` (centres unmarked) [Compound 2.025, 4-(4-(3-(4-chloro-3-(trifluoromethyl)phenyl)ureido)phenoxy)-N-(2-(1-(6-((2-(2,6-dioxopiperidin-3-yl)-1,3-dioxoisoindolin-4-yl)amino)-6-oxohexyl)-1H-1,2,3-triazol-4-yl)ethyl)picolinamide], “++ (25% > RAF/E3 Dimerization ≥ 5%)”; in that of `Cc1ncc(NC(=O)c2cccc(C(F)(F)F)c2)cc1-c1cnc(OC(C)Cc2cnnn2CCCCCC(=O)Nc2cccc3c2C(=O)N(C2CCC(=O)NC2=O)C3=O)c(N2CCOCC2)c1` (racemic) [Compound 1.010, (±)-N-(6′-((1-(1-(6-((2-(2,6-dioxopiperidin-3-yl)-1,3-dioxoisoindolin-4-yl)amino)-6-oxohexyl)-1H-1,2,3-triazol-5-yl)propan-2-yl)oxy)-2-methyl-5′-morpholino-[3,3′-bipyridin]-5-yl)-3-(trifluoromethyl)benzamide], “+ (5% > RAF/E3 Dimerization)”.
`O=C1CCC(N2C(=O)c3cccc(NC(=O)CCCCCn4cc(CNC(=O)c5cc(Oc6ccc(NC(=O)Nc7ccc(Cl)c(C(F)(F)F)c7)cc6)ccn5)nn4)c3C2=O)C(=O)N1` (centres unmarked) [Compound 2.024, 4-(4-(3-(4-chloro-3-(trifluoromethyl)phenyl)ureido)phenoxy)-N-((1-(6-((2-(2,6-dioxopiperidin-3-yl)-1,3-dioxoisoindolin-4-yl)amino)-6-oxohexyl)-1H-1,2,3-triazol-4-yl)methyl)picolinamide]: the “RAF/E3 Dimerization” value was “++ (25% > RAF/E3 Dimerization ≥ 5%)”.
Consider `Cc1ncsc1-c1ccc([C@H](C)NC(=O)C2C[C@@H](O)CN2C(=O)C(NC(=O)CCOCCOCCNC(=O)c2cc(Oc3ccc(NC(=O)Nc4ccc(Cl)c(C(F)(F)F)c4)cc3)ccn2)C(C)(C)C)cc1` (stereo in doubt) [Compound 1.014, 4-(4-(3-(4-chloro-3-(trifluoromethyl)phenyl)ureido)phenoxy)-N-(2-(2-(3-(((R)-1-((2S,4R)-4-hydroxy-2-(((S)-1-(4-(4-methylthiazol-5-yl)phenyl)ethyl)carbamoyl)pyrrolidin-1-yl)-3,3-dimethyl-1-oxobutan-2-yl)amino)-3-oxopropoxy)ethoxy)ethyl)picolinamide], for which the “RAF/E3 Dimerization” value is on record as “+ (5% > RAF/E3 Dimerization)”.
As for `O=C1CCC(N2C(=O)c3cccc(NC(=O)CCCCCn4cc(COCCOCCOCCOCCOCCNC(=O)c5cc(Oc6ccc(NC(=O)Nc7ccc(Cl)c(C(F)(F)F)c7)cc6)ccn5)nn4)c3C2=O)C(=O)N1` (centres unmarked) [Compound 2.028, 4-(4-(3-(4-chloro-3-(trifluoromethyl)phenyl)ureido)phenoxy)-N-(1-(1-(6-((2-(2,6-dioxopiperidin-3-yl)-1,3-dioxoisoindolin-4-yl)amino)-6-oxohexyl)-1H-1,2,3-triazol-4-yl)-2,5,8,11,14-pentaoxahexadecan-16-yl)picolinamide], the “RAF/E3 Dimerization” value is recorded as “++ (25% > RAF/E3 Dimerization ≥ 5%)”.
Still for that read-out and setting: in the case of `CCCCCCNC(=O)Nc1cc(-c2cc3cnc(NCCCCc4cn(CCCCCC(=O)Nc5cccc6c5C(=O)N(C5CCC(=O)NC5=O)C6=O)nn4)nc3nc2C)c(C)cc1F` (centres unmarked) [Compound 2.036, N-(2-(2,6-dioxopiperidin-3-yl)-1,3-dioxoisoindolin-4-yl)-6-(4-(4-((6-(4-fluoro-5-(3-hexylureido)-2-methylphenyl)-7-methylpyrido[2,3-d]pyrimidin-2-yl)amino)butyl)-1H-1,2,3-triazol-1-yl)hexanamide] it was “++ (25% > RAF/E3 Dimerization ≥ 5%)”; in that of `Cc1ncc(NC(=O)c2cccc(C(F)(F)F)c2)cc1-c1cnc(OC2CCOCC2)c(N2CCN(CCCCc3cn(CCCCCC(=O)Nc4cccc5c4C(=O)N(C4CCC(=O)NC4=O)C5=O)nn3)CC2)c1` (centres unmarked) [Compound 2.048, N-(5′-(4-(4-(1-(6-((2-(2,6-dioxopiperidin-3-yl)-1,3-dioxoisoindolin-4-yl)amino)-6-oxohexyl)-1H-1,2,3-triazol-4-yl)butyl)piperazin-1-yl)-2-methyl-6′-((tetrahydro-2H-pyran-4-yl)oxy)-[3,3′-bipyridin]-5-yl)-3-(trifluoromethyl)benzamide], “++ (25% > RAF/E3 Dimerization ≥ 5%)”; in that of `O=C1CCC(N2C(=O)c3cccc(CCCOCCNC(=O)c4cc(Oc5ccc(NC(=O)Nc6ccc(Cl)c(C(F)(F)F)c6)cc5)ccn4)c3C2=O)C(=O)N1` (centres unmarked) [Compound 2.029, 4-(4-(3-(4-chloro-3-(trifluoromethyl)phenyl)ureido)phenoxy)-N-(2-(3-(2-(2,6-dioxopiperidin-3-yl)-1,3-dioxoisoindolin-4-yl)propoxy)ethyl)picolinamide], “+ (5% > RAF/E3 Dimerization)”.
The same measure, in the same setting: to `Cc1ncc(NC(=O)c2cccc(C(F)(F)F)c2)cc1-c1cnc(O[C@@H]2CCO[C@@H](COCc3cn(CCCCCC(=O)N[C@@H](C(=O)N4C[C@H](O)C[C@H]4C(=O)N[C@@H](C)c4ccc(-c5scnc5C)cc4)C(C)(C)C)nn3)C2)c(N2CCOCC2)c1` [Compound 2.005] belongs “++++ (75% > RAF/E3 Dimerization ≥ 50%)”; to `O=C1CCC(N2C(=O)c3cccc(NC(=O)CCCCCn4cc(CCCCNC(=O)c5cc(Oc6ccc(NC(=O)Nc7ccc(Cl)c(C(F)(F)F)c7)cc6)ccn5)nn4)c3C2=O)C(=O)N1` (centres unmarked) [Compound 2.026, 4-(4-(3-(4-chloro-3-(trifluoromethyl)phenyl)ureido)phenoxy)-N-(4-(1-(6-((2-(2,6-dioxopiperidin-3-yl)-1,3-dioxoisoindolin-4-yl)amino)-6-oxohexyl)-1H-1,2,3-triazol-4-yl)butyl)picolinamide], “+ (5% > RAF/E3 Dimerization)”.

For the origin of these results see patent US10787443B2, “RAF-degrading conjugate compounds” (ZAMBONI CHEM SOLUTIONS INC., priority 2017, dated 2020).
